Test results published in patent US20040229207A1 (priority 1999, published 2004).

system: LAB-1 strain; assay: Inhibition of LAB-1 growth, cell attachment and biofilm production in growth media; assay type: cell-based; settings: 0.1-1.0% (w/v) in liquid or solid growth media
Excerpt: It would be apparent to one of ordinary skill in the art to apply the above methods to inhibit the production of mucoid compounds and biofilm in any mucoid organism.

**Q.** For `CC(C)Cc1ccc(C(C)C(=O)O)cc1` (stereo not shown) [ibuprofen, 2-(4-isobutylphenyl)-propionic acid], which “growth, development, cell attachment and biofilm production of LAB-1” value is on record?
**A.** Its value is “differentially inhibits”.

**Q.** Which “growth, development, cell attachment and biofilm production of LAB-1” value does the source give for `CCC(=O)O` [propionic acid] here?
**A.** The value was “differentially inhibits”.

system: LAB-1; assay: Antibiotic sensitivity testing of LAB-1; assay type: cell-based; settings: not given
Procedure: A variety of biochemical tests were performed in order to identify the species and the genus of organism. The tests included: assessment of growth conditions, culture appearance, cell appearance and staining characteristics, optimal temperature and pH growth range, oxygen requirements, antibiotic sensitivity testing, tests for catalase and oxidase (using TAXOS N™ disks), amino acid utilization as carbon source, nitrogen fixation, motility test, and a variety of commercially available tests from MICRO-ID™, OXYFERM™, ENTEROTUBE™ and BIOLOG GN MICROPLATE™.

**Q.** How did the “Antibiotic Susceptibility” value turn out when `CC[C@H]1OC(=O)[C@H](C)[C@@H](O[C@H]2C[C@@](C)(OC)[C@@H](O)[C@H](C)O2)[C@H](C)[C@@H](O[C@@H]2O[C@H](C)C[C@H](N(C)C)[C@H]2O)[C@](C)(O)C[C@@H](C)C(=O)[C@H](C)[C@@H](O)[C@]1(C)O` [Erythromycin] was run?
**A.** The value was “resistant”.

**Q.** Which “Antibiotic Susceptibility” value does the source give for `CC1(C)S[C@@H]2[C@H](NC(=O)[C@H](N)c3ccccc3)C(=O)N2[C@H]1C(=O)O` [Ampicillin] here?
**A.** The value was “resistant”.

**Q.** With `NCC[C@H](O)C(=O)N[C@@H]1C[C@H](N)[C@@H](O[C@H]2O[C@H](CN)[C@@H](O)[C@H](O)[C@H]2O)[C@H](O)[C@H]1O[C@H]1O[C@H](CO)[C@@H](O)[C@H](N)[C@H]1O` [Amikacin] as the compound, how does the “Antibiotic Susceptibility” value read?
**A.** The value was “sensitive”.

**Q.** For `[H]/N=C(/N)N[C@H]1[C@H](O)[C@@H](O)[C@H](O[C@@H]2O[C@@H](C)[C@](O)(C=O)[C@H]2O[C@@H]2O[C@@H](CO)[C@H](O)[C@@H](O)[C@@H]2NC)[C@@H](N/C(N)=N\[H])[C@@H]1O` [Streptomycin], which “Antibiotic Susceptibility” value is on record?
**A.** Its value is “resistant”.

**Q.** With `CO[C@@H]1[C@@H](OC(N)=O)[C@@H](O)[C@H](Oc2ccc3c(O)c(NC(=O)c4ccc(O)c(CC=C(C)C)c4)c(=O)oc3c2C)OC1(C)C` [Novobiocin] as the compound, how does the “Antibiotic Susceptibility” value read?
**A.** The value was “sensitive”.

**Q.** For Polymyxin B, which “Antibiotic Susceptibility” value is on record?
**A.** Its value is “sensitive”.

**Q.** For Neomycin, which “Antibiotic Susceptibility” value is on record?
**A.** The value was “sensitive”.

**Q.** With Penicillin as the compound, how does the “Antibiotic Susceptibility” value read?
**A.** The value was “resistant”.
